From patent US20140315834A1 (Medicon Pharmaceuticals, Inc., priority 2012, published 2014) come the findings set out here.

The subject of data set [1] is AsPC-1, CFPAC-1, Capan-2, Panc-1 and MIA PaCa-2. Nature of the data set: Growth of human pancreatic cancer cell lines, 24 hours. The data set is classed as cell-based. Conditions: escalating concentrations, all cell lines. As for the experimental part: Cell growth was determined in the human pancreatic cancer cell lines AsPC-1, CFPAC-1, Capan-2, Panc-1 and MIA PaCa-2 after treatment with escalating concentrations of P-FTS 67 for 24 hours.

Data set [2] concerns MIA PaCa-2 cells. The data set is described as follows: MIA PaCa-2 pancreatic cancer xenografts. The data set is classed as in vivo, mice. The following applies: for reduction of tumor volume growth: day 25. The procedure: The in vivo chemotherapeutic potential of P-FTS 67 was assessed using a pancreatic cancer xenograft model. MIA PaCa-2 cells were injected subcutaneously into the flank areas of nude mice. When palpable tumors were observed, the mice received P-FTS 67, 50 or 100 mg/kg/d by oral gavage in corn oil or just corn oil (control) for 25 days. On day 25 of treatment, P-FTS 67, 50 mg/kg/d, and P-FTS 67, 100 mg/kg/d reduced the tumor volume growth by 62% and 65%, respectively (p <0.05; FIG. 27).

The nature of data set [3]: Sub-chronic toxicity of P-FTS, 3 weeks oral gavage. It counts as in vivo, mice. As for the experimental part:
The toxicity of P-FTS in mice was further examined. Groups of 6 week-old female BALB/c mice (5 mice/group) were given by oral gavage once a day for 3 weeks P-FTS: 0, 75, 150, 250 and 350 mg/kg. […] The (sub-chronic) maximum tolerated dose of P-FTS 67 (3-week period of observation) was determined to be at least 350 mg/kg/d.

Data set [4] relates to Ras (Ras-GTP) in Panc-1 cells. Nature of the data set: Ras-GTP pull down assay in cells. It counts as cell-based. The text has this: In the following experiments it was examined whether the pancreatic cancer growth inhibitory effect of P-FTS 67 is associated with down regulation of Ras signaling. For this purpose, the Ras-GTP pull down assay was used.
The test system of data set [5] is active Ras in MIA PaCa-2 xenografts. The data set is described as follows: Ras-GTP pull down assay in xenograft lysates. The data set is classed as in vivo, mice. The procedure: The inhibition of Ras by P-FTS 67 was further confirmed in vivo. The Ras-GTP pull down assay was used to test the capacity of P-FTS 67 to inhibit active Ras in fresh protein lysates from MIA PaCa-2 xenografts. Compared to controls, P-FTS 67, 50 and 100 mg/kg reduced RAS activation in xenografts by 62% and 70%, respectively (p<0.01, for both; FIG. 30A).

The test system of data set [6] is p-c-RAF. The data set is described as follows: Immunostaining of xenograft tissue sections, p-c-RAF. It counts as in vivo, mice. The following applies: MIA PaCa-2 xenograft tissue sections.
In data set [7] the test system is p-ERK1/2. Nature of the data set: Immunostaining of xenograft tissue sections, p-ERK1/2. It counts as in vivo, mice. The following applies: MIA PaCa-2 xenograft tissue sections.

As to `CCOP(=O)(OCC)OCCCCOC(=O)c1ccccc1SC/C=C(\C)CC/C=C(\C)CCC=C(C)C` [Compound 67], in data set [1], the “pancreatic cancer cell growth, % control” value is “decreases pancreatic cancer cell growth in a concentration-dependent manner”. For the same compound, the “reduction of tumor volume growth” value was 62% in data set [2] (50 mg/kg/d oral gavage) and 65% in data set [2] (100 mg/kg/d oral gavage). In addition, the “tolerability in the efficacy study” value in data set [2] (50 or 100 mg/kg/d oral gavage, 25 days) is reported as “well tolerated”. The “weight loss or other signs of toxicity” value in data set [3] (75, 150, 250 and 350 mg/kg oral gavage once a day for 3 weeks) was “no weight loss or other signs of toxicity”. The “(sub-chronic) maximum tolerated dose” value in data set [3] (oral gavage once a day, 3-week period of observation) was “at least 350 mg/kg/d”. In data set [4], the “inhibition of active Ras (Ras-GTP)” value is recorded as “significantly inhibited”. Moreover, the figures for the “reduction of RAS activation in xenografts” value in data set [5] (50 mg/kg) and in data set [5] (100 mg/kg) were 62% and 70%, respectively. The “reduction of expression of p-c-RAF” value in data set [6] stood at 73%. The “reduction of expression of p-ERK1/2” value in data set [7] came out at 71%.
